The conditions of series [1]: for Triple point temperature: Crystal; for Triple point temperature / Glass transition temperature: DSC; for mass density / viscosity: 100.9 kPa, Liquid; for mass density: Vibrating tube method; for viscosity: Cone and plate viscometry.
Series [2] can be described thus: Molar enthalpy of transition or fusion. The settings on record: Crystal; DSC.

Numbers after ± are expanded uncertainties.

This note sets out measurements from the NIST ThermoML archive (doi:10.1021/acs.jced.9b00776).

Turning to `CC(C)[n+]1ccn(C)c1.[I-]` [1-methyl-3-(1-methylethyl)imidazolium iodide], in series [1], the Triple point temperature is on record as 383.4 ± 1.8 K. Further, in series [2], the “Molar enthalpy of transition or fusion” value was determined as 3.9 ± 0.12 kcal/mol.

Usually mass density stands for the mass of a sample divided by its volume. One may read the viscosity as the resistance of a fluid to flow. As for `C[n+]1ccn(C(C)(C)C)c1.O=S(=O)([N-]S(=O)(=O)C(F)(F)C(F)(F)F)C(F)(F)C(F)(F)F`, the mass density in series [1] (293.15 K) came to 1530.8 ± 2 kg/m3; in series [1] (298.15 K), 1525.2 ± 2 kg/m3; in series [1] (303.15 K), 1519.9 ± 2 kg/m3; in series [1] (313.15 K) it was 1509.6 ± 2 kg/m3; in series [1] (323.15 K), 1498.9 ± 2 kg/m3; in series [1] (333.15 K), 1488.6 ± 2 kg/m3. Besides, the figures for the mass density in series [1] (343.15 K) and in series [1] (353.15 K) were 1478.4 ± 2 kg/m3 and 1467.8 ± 2 kg/m3, respectively. In addition, the viscosity in series [1] (293.2 K) was 571.1 ± 53 mPa·s; in series [1] (298.2 K), 367.2 ± 33 mPa·s; in series [1] (303.2 K), 246.7 ± 21 mPa·s; in series [1] (313.2 K) it was 126.1 ± 10 mPa·s; in series [1] (323.2 K), 80.9 ± 6.6 mPa·s; in series [1] (333.2 K) it was 50.7 ± 4.1 mPa·s. The viscosity was found to be 33.9 ± 2.7 mPa·s in series [1] (343.2 K) and 23.8 ± 1.9 mPa·s in series [1] (353.2 K). The Triple point temperature in series [1] is reported as 294.3 ± 1.8 K. The Glass transition temperature in series [1] is -58.0 ± 1.8 °C. In addition, the “Molar enthalpy of transition or fusion” value in series [2] stood at 3.99 ± 0.12 kcal/mol.

As to `CC(C)[n+]1ccn(C)c1.F[P-](F)(F)(F)(F)F` [1-methyl-3-(1-methylethyl)imidazolium hexafluorophosphate], in series [1], the Triple point temperature is on record as 374 ± 1.8 K. Also, in series [2], the “Molar enthalpy of transition or fusion” value was 3.75 ± 0.12 kcal/mol.

As to `CC(C)[n+]1ccn(C)c1.O=S(=O)([N-]S(=O)(=O)C(F)(F)F)C(F)(F)F`, the mass density is given as 1481.9 ± 2 kg/m3 in series [1] (293.15 K); 1476.8 ± 2 kg/m3 in series [1] (298.15 K); 1472 ± 2 kg/m3 in series [1] (303.15 K); 1462.5 ± 2 kg/m3 in series [1] (313.15 K); 1452.4 ± 2 kg/m3 in series [1] (323.15 K); 1442.9 ± 2 kg/m3 in series [1] (333.15 K). Also, the mass density amounted to 1433.4 ± 2 kg/m3 in series [1] (343.15 K) and 1423.7 ± 2 kg/m3 in series [1] (353.15 K). Moreover, the viscosity in series [1] (293.2 K) was 58.3 ± 4.7 mPa·s; in series [1] (298.2 K), 45.5 ± 3.7 mPa·s; in series [1] (303.2 K) it was 36.9 ± 3 mPa·s; in series [1] (313.2 K), 24.5 ± 2 mPa·s; in series [1] (323.2 K), 19.3 ± 1.6 mPa·s; in series [1] (333.2 K), 14.5 ± 1.2 mPa·s. Also, the viscosity in series [1] (343.2 K) is listed as 11.2 ± 0.9 mPa·s; in series [1] (353.2 K), 8.9 ± 0.7 mPa·s. For the same compound, the Triple point temperature in series [1] came out at 283.5 ± 1.8 K. Besides, the “Molar enthalpy of transition or fusion” value in series [2] amounted to 5.78 ± 0.167 kcal/mol.

`CC(C)n1cc[n+](C)c1.O=S(=O)([N-]S(=O)(=O)C(F)(F)C(F)(F)F)C(F)(F)C(F)(F)F`: the mass density in series [1] (293.15 K) is recorded as 1556.7 ± 2 kg/m3; in series [1] (298.15 K), 1551.3 ± 2 kg/m3; in series [1] (303.15 K), 1546 ± 2 kg/m3; in series [1] (313.15 K), 1535.5 ± 2 kg/m3; in series [1] (323.15 K) it was 1524.6 ± 2 kg/m3; in series [1] (333.15 K), 1514 ± 2 kg/m3. The mass density in series [1] (343.15 K) worked out at 1503.5 ± 2 kg/m3; in series [1] (353.15 K) it was 1492.8 ± 2 kg/m3. Also, the viscosity in series [1] (293.2 K) is listed as 172.6 ± 14 mPa·s; in series [1] (298.2 K), 121.4 ± 10 mPa·s; in series [1] (303.2 K), 91.7 ± 7.5 mPa·s; in series [1] (313.2 K), 53 ± 4.3 mPa·s; in series [1] (323.2 K), 38 ± 3.1 mPa·s; in series [1] (333.2 K), 26.4 ± 2.1 mPa·s. Moreover, the viscosity is reported as 19.1 ± 1.5 mPa·s in series [1] (343.2 K) and 14.4 ± 1.2 mPa·s in series [1] (353.2 K). For the same compound, the Glass transition temperature in series [1] was -75.7 ± 1.8 °C.

For `C[n+]1ccn(C(C)(C)C)c1.O=S(=O)([N-]S(=O)(=O)C(F)(F)F)C(F)(F)F`, the mass density in series [1] (293.15 K) came out at 1451.5 ± 2 kg/m3; in series [1] (298.15 K), 1446.6 ± 2 kg/m3; in series [1] (303.15 K) it was 1442 ± 2 kg/m3; in series [1] (313.15 K), 1432.8 ± 2 kg/m3; in series [1] (323.15 K), 1423.1 ± 2 kg/m3; in series [1] (333.15 K), 1413.8 ± 2 kg/m3. The mass density in series [1] (343.15 K) amounted to 1404.5 ± 2 kg/m3; in series [1] (353.15 K), 1395 ± 2 kg/m3. The viscosity is given as 167.3 ± 14 mPa·s in series [1] (293.2 K); 121.4 ± 10 mPa·s in series [1] (298.2 K); 91.5 ± 7.4 mPa·s in series [1] (303.2 K); 55.6 ± 4.5 mPa·s in series [1] (313.2 K); 37.5 ± 3 mPa·s in series [1] (323.2 K); 26.2 ± 2.1 mPa·s in series [1] (333.2 K). The viscosity in series [1] (343.2 K) is listed as 19 ± 1.5 mPa·s; in series [1] (353.2 K), 14.5 ± 1.2 mPa·s. In addition, the Triple point temperature in series [1] is recorded as 280.4 ± 1.8 K. The “Molar enthalpy of transition or fusion” value in series [2] was 5.47 ± 0.167 kcal/mol.

`C[n+]1ccn(C(C)(C)C)c1.[I-]` [1-tert-butyl-3-methylimidazolium iodide]: the Triple point temperature in series [1] was 432.7 ± 1.8 K. Further, the “Molar enthalpy of transition or fusion” value in series [2] was found to be 3.63 ± 0.12 kcal/mol.

As to `C[n+]1ccn(C(C)(C)C)c1.F[P-](F)(F)(F)(F)F` [1-tert-butyl-3-methylimidazolium hexafluorophosphate], in series [1], the Triple point temperature was found to be 421 ± 1.8 K. For the same compound, the “Molar enthalpy of transition or fusion” value in series [2] is 5.52 ± 0.167 kcal/mol.
